From patent EP1939186A1, “5-Fluorouracil derivatives and their use for the treatment of cancer” (Sulfidris S.r.l., priority 2006, dated 2008)

Key:
Type in all cases: cell-based
[1] = test system: Cisplatin resistant human ovarian cancer cells; assay: Toxicity assay (printed MTD assay) on resistant cells; settings: various concentrations (1-1000 µM) for 24, 48 or 72 hours
Experimental: Cisplatin resistant human ovarian cancer cells were treated with compounds of example 1 and 4 in comparison with 5-FU at various concentrations (1-1000 µM) for 24, 48 or 72 hours. MTD assay was used for toxicity study.

[2] = test system: colon tumour cells DLD 1; assay: MTT assay (cell viability by mitochondrial dehydrogenase) on colon tumour cells; settings: in vitro, range of concentrations 1-100 µM
Source text: (§1) The compound described in example 4 has been tested in vitro on colon tumour cells HCT 116 and DLD 1. MTT assay was used for toxicity study (spectrophotometric measurement of cell viability by mitochondrial dehydrogenase).

[3] = test system: colon tumour cells HCT 116; assay: as above; settings: in vitro, range of concentrations 1-100 µM
Source text: as §1

| SMILES | biological activity in comparison with 5-FU [1] | inhibit growth of colon tumour cells [2] | inhibit growth of colon tumour cells [3] |
| --- | --- | --- | --- |
| CS(=O)(=O)SCCOC(=O)CNC(=O)n1cc(F)c(=O)[nH]c1=O [Example 4, 2-(methylsulfonylthio)ethyl 2-(5-fluoro-2,4-dioxo-1,2,3,4-tetrahydropyrimidine-1-carboxamido)acetate] | superior to 5-FU | potently inhibit growth | potently inhibit growth |
| CS(=O)(=O)SCCC(=O)OCn1cc(F)c(=O)[nH]c1=O [Example 1, (5-fluoro-2,4-dioxo-3,4-dihydropyrimidin-1(2H)-yl)methyl 3-(methylsulfonylthio)propanoate] | superior to 5-FU | – | – |
